Molecules are shown by their SMILES.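 1) Cells in 96-well plates. 2) Compound, 48 h, 5 concentrations. 3) Linear interpolation between surrounding doses. 4) Unreached endpoint = highest concentration. GI50: concentration for 50% inhibition of growth. Definition used: TGI = concentration required for complete inhibition of growth.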

Some test systems named below: K-562 leukemia; U251 CNS; OVCAR-4 ovarian; MCF7 breast; UACC-62 melanoma; NCI-H23 lung; NCI/ADR-RES ovarian; MDA-MB-435; 786-0 renal; A498 renal.
Assay in all cases: NCI tumour cell line growth inhibition, 48 h

As for `CN1CCN(CCCOC(=O)c2c3c(n4ccccc24)C(=O)c2ncccc2C3=O)CC1`, the GI50 in the assay with K-562 leukemia was less than 0.0113 µM; in the assay on U251 CNS it was less than 0.01 µM; with OVCAR-4 ovarian, 0.537 µM; with MCF7 breast it was less than 0.01 µM; in the assay with UACC-62 melanoma it was less than 0.01 µM; with NCI-H23 lung it was less than 0.01 µM. For the same molecule, the figures for the GI50 with NCI/ADR-RES ovarian, in the assay on MDA-MB-435 and in the assay with 786-0 renal were less than 0.0107 µM, 0.0142 µM and less than 0.01 µM, respectively. Moreover, the TGI in the assay on U251 CNS was 0.0768 µM; in the assay with OVCAR-4 ovarian it was 3.78 µM; in the assay with MCF7 breast it was 0.0178 µM; in the assay with UACC-62 melanoma it was 0.0324 µM; with NCI-H23 lung, less than 0.0172 µM; with NCI/ADR-RES ovarian, 12.9 µM. Moreover, the results for the TGI with MDA-MB-435 and in the assay with 786-0 renal were 0.162 µM and 0.0407 µM, respectively.

Regarding `C=CC(=O)N1CCN([C@@H](CC2CC2)c2ccc([C@H](C)Nc3ncc4c(n3)N(CC)C(=O)OC4)cc2)CC1`, the GI50 was 5.34 µM in the assay on K-562 leukemia; 11.8 µM with U251 CNS; 12.3 µM in the assay on OVCAR-4 ovarian; 11.2 µM with A498 renal; 6.66 µM with MCF7 breast; 12.1 µM in the assay with UACC-62 melanoma. For the same molecule, the values for the GI50 in the assay with NCI/ADR-RES ovarian, in the assay with MDA-MB-435 and in the assay on 786-0 renal were 21.5 µM, 11.1 µM and 11.2 µM, respectively. The TGI turned out to be 69.5 µM in the assay with K-562 leukemia; 26.3 µM in the assay with U251 CNS; 28.4 µM with OVCAR-4 ovarian; 23.6 µM in the assay on A498 renal; 24.6 µM with MCF7 breast; 26.1 µM with UACC-62 melanoma. Moreover, the figures for the TGI in the assay on NCI/ADR-RES ovarian, in the assay on MDA-MB-435 and in the assay on 786-0 renal were greater than 100 µM, 23.6 µM and 25.7 µM, respectively.

In the case of `Clc1ccc(NCNC2Nc3ccccc3N2)cc1Cl`, the TGI is greater than 100 µM in the assay with K-562 leukemia; greater than 100 µM with U251 CNS; greater than 100 µM in the assay on A498 renal; 29.1 µM in the assay with MCF7 breast; greater than 100 µM in the assay with UACC-62 melanoma; greater than 100 µM in the assay with NCI-H23 lung. The values for the TGI in the assay on NCI/ADR-RES ovarian, in the assay on MDA-MB-435 and with 786-0 renal were greater than 100 µM, 93.2 µM and greater than 100 µM, respectively.

For `CC(C)CC(NC(=O)C(O)C(N)Cc1ccccc1)C(=O)O` (stereo not given), the TGI with K-562 leukemia, in the assay with U251 CNS, in the assay with OVCAR-4 ovarian, with MCF7 breast, with UACC-62 melanoma and with NCI-H23 lung was greater than 100 µM each time. Further, the TGI with NCI/ADR-RES ovarian, in the assay with MDA-MB-435 and in the assay on 786-0 renal was greater than 100 µM throughout.

For the molecule `Clc1ccc2c(NC3CCC(NC4CCCCC4)CC3)ccnc2c1` (stereo not given), the GI50 is 3.6 µM with U251 CNS; 6.48 µM in the assay on OVCAR-4 ovarian; 4.07 µM with A498 renal; 2.49 µM in the assay with MCF7 breast; 3.26 µM in the assay with UACC-62 melanoma; 7.74 µM in the assay on NCI-H23 lung. Further, the GI50 was 8.48 µM in the assay on NCI/ADR-RES ovarian, 2.11 µM in the assay with MDA-MB-435 and 11.9 µM in the assay on 786-0 renal. The TGI with U251 CNS came out at 13.3 µM; in the assay with OVCAR-4 ovarian, 41 µM; in the assay with A498 renal, 27.4 µM; in the assay on MCF7 breast, 11 µM; in the assay with UACC-62 melanoma it was 12.5 µM; in the assay with NCI-H23 lung it was 35.9 µM. In addition, the TGI came to 30.4 µM with NCI/ADR-RES ovarian, 5.51 µM in the assay on MDA-MB-435 and 24.5 µM in the assay with 786-0 renal.

As to `COc1cccc(C2CC(C)(O)Oc3cc4c(cc32)OCO4)c1` (stereo not given), the TGI is greater than 100 µM in the assay on K-562 leukemia; 86.5 µM in the assay with U251 CNS; greater than 100 µM in the assay on OVCAR-4 ovarian; greater than 100 µM in the assay on MCF7 breast; greater than 100 µM in the assay with UACC-62 melanoma; greater than 100 µM in the assay with NCI-H23 lung. Moreover, the figures for the TGI in the assay with NCI/ADR-RES ovarian, in the assay on MDA-MB-435 and in the assay with 786-0 renal were 59.3 µM, 15.2 µM and greater than 100 µM, respectively.

For `N#CSc1c[nH]c2ccc(/C=C/C(=O)/C=C(O)/C=C/c3ccc4[nH]cc(SC#N)c4c3)cc12`, the GI50 with U251 CNS is 1.17 µM; in the assay with OVCAR-4 ovarian it was 1.42 µM; in the assay with A498 renal, 7.61 µM; in the assay on MCF7 breast it was 0.871 µM; in the assay on UACC-62 melanoma, 2.11 µM; in the assay on NCI-H23 lung, 2.95 µM. Moreover, the GI50 in the assay with NCI/ADR-RES ovarian was 3.22 µM; in the assay with MDA-MB-435, 2.06 µM; in the assay on 786-0 renal it was 0.956 µM. Besides, the TGI in the assay on U251 CNS came to 9.09 µM; in the assay on OVCAR-4 ovarian it was 18.6 µM; in the assay on A498 renal, 55.4 µM; with MCF7 breast, 4.15 µM; in the assay on UACC-62 melanoma, 7.11 µM; with NCI-H23 lung it was 13.6 µM. Also, the results for the TGI in the assay with NCI/ADR-RES ovarian, in the assay on MDA-MB-435 and in the assay with 786-0 renal were 52.7 µM, 7.03 µM and 9.53 µM, respectively.

For `C=C1C(=O)O[C@@H]2C[C@@]3(C)CCC[C@H](C)C3=C[C@H]12` (tested in a mixture with another compound), the TGI in the assay on U251 CNS is 9.93 µM; in the assay with OVCAR-4 ovarian it was 6.45 µM; in the assay on A498 renal it was 3.58 µM; with MCF7 breast it was 10.7 µM; with UACC-62 melanoma, 6.94 µM; in the assay with NCI-H23 lung, 5.67 µM. Further, the TGI amounted to 5.2 µM in the assay with NCI/ADR-RES ovarian, 3.72 µM with MDA-MB-435 and 2.83 µM in the assay on 786-0 renal.

For the molecule `CCN(Cc1ccccc1)c1ccc(/C=C2\COc3ccccc3C2=O)cc1`, the GI50 was greater than 1000 µM with U251 CNS; 761 µM with OVCAR-4 ovarian; greater than 1000 µM with A498 renal; 69.4 µM in the assay on MCF7 breast; 304 µM in the assay with UACC-62 melanoma; 818 µM with NCI-H23 lung. The GI50 in the assay with NCI/ADR-RES ovarian is 351 µM; in the assay on MDA-MB-435 it was 47 µM; in the assay with 786-0 renal, greater than 1000 µM. Besides, the TGI in the assay with U251 CNS, in the assay with OVCAR-4 ovarian, in the assay on A498 renal, with MCF7 breast, in the assay on UACC-62 melanoma and with NCI-H23 lung was greater than 1000 µM in each case. For the same molecule, the results for the TGI in the assay on NCI/ADR-RES ovarian, in the assay on MDA-MB-435 and in the assay with 786-0 renal were greater than 1000 µM, 458 µM and greater than 1000 µM, respectively.
